The subject of this data set is CCRIS mutagenicity, Ames/micronucleus/aberration tests. Description: CCRIS mutagenicity studies.
Where [1] appears, read: Test System: AMES SALMONELLA TYPHIMURIUM, Strain/Indicator: TA98, Metabolic Activation: NONE, Method: STANDARD PLATE.
Setting [2] is: Test System: AMES SALMONELLA TYPHIMURIUM, Strain/Indicator: TA98, Metabolic Activation: RAT, LIVER, S-9, AROCLOR 1254, Method: STANDARD PLATE.
Where [3] appears, read: Test System: AMES SALMONELLA TYPHIMURIUM, Strain/Indicator: TA100, Metabolic Activation: NONE, Method: STANDARD PLATE.
Setting [4] is: Test System: AMES SALMONELLA TYPHIMURIUM, Strain/Indicator: TA100, Metabolic Activation: RAT, LIVER, S-9, AROCLOR 1254, Method: STANDARD PLATE.
Where [5] appears, read: Test System: AMES SALMONELLA TYPHIMURIUM, Strain/Indicator: TA1535, Metabolic Activation: NONE.

The source made the active and inactive calls. No rule for the calls is given here.

With `CNCCCN1c2ccccc2CCc2ccccc21`, the mutagenic call is “inactive; negative” under setting [1]; “inactive; negative” under setting [2]; “inactive; negative” under setting [3]; “inactive; negative” under setting [4]; “inactive; negative” (Test System: AMES SALMONELLA TYPHIMURIUM, Strain/Indicator: TA1535, Metabolic Activation: NONE, Method: STANDARD PLATE); “inactive; negative” (Test System: AMES SALMONELLA TYPHIMURIUM, Strain/Indicator: TA1535, Metabolic Activation: RAT, LIVER, S-9, AROCLOR 1254, Method: STANDARD PLATE). The mutagenic call reads like this: (Test System: AMES SALMONELLA TYPHIMURIUM, Strain/Indicator: TA1537, Metabolic Activation: NONE, Method: STANDARD PLATE) “inactive; negative”; (Test System: AMES SALMONELLA TYPHIMURIUM, Strain/Indicator: TA1537, Metabolic Activation: RAT, LIVER, S-9, AROCLOR 1254, Method: STANDARD PLATE) “inactive; negative”.
As to `CCCC(Cl)C(=O)S` (stereo not given), the mutagenic call under setting [5] is “active; positive”.
Consider `NC(=O)/N=N/C(N)=O`, for which the mutagenic call is “inactive; negative” (Test System: AMES SALMONELLA TYPHIMURIUM, Strain/Indicator: TA98, Metabolic Activation: HAMSTER, LIVER, S-9, AROCLOR 1254, Method: STANDARD PLATE); “inactive; negative” under setting [1]; “inactive; negative” under setting [2]; “active; positive” (Test System: AMES SALMONELLA TYPHIMURIUM, Strain/Indicator: TA100, Metabolic Activation: HAMSTER, LIVER, S-9, AROCLOR 1254, Method: STANDARD PLATE); “active; positive” under setting [3]; “active; positive” under setting [4]. In addition, the mutagenic call was “inactive; negative. reevaluation of results: inconclusive” (Test System: MOUSE LYMPHOMA, Strain/Indicator: L5178Y (TK+/TK-), Metabolic Activation: NONE, Method: SUSPENSION/PLATE) and “inactive; negative. reevaluation of results: negative” (Test System: MOUSE LYMPHOMA, Strain/Indicator: L5178Y (TK+/TK-), Metabolic Activation: RAT, LIVER, S-9, AROCLOR 1254, Method: SUSPENSION/PLATE).
For `[CH3][Hg+]`, the mutagenic call was “inactive; negative” (Test System: AMES SALMONELLA TYPHIMURIUM, Strain/Indicator: TA97, Metabolic Activation: HAMSTER, LIVER, S-9, AROCLOR 1254 (10%), Method: PREINCUBATION); “inactive; negative” (Test System: AMES SALMONELLA TYPHIMURIUM, Strain/Indicator: TA97, Metabolic Activation: HAMSTER, LIVER, S-9, AROCLOR 1254 (30%), Method: PREINCUBATION); “inactive; negative” (Test System: AMES SALMONELLA TYPHIMURIUM, Strain/Indicator: TA97, Metabolic Activation: NONE, Method: PREINCUBATION); “inactive; negative” (Test System: AMES SALMONELLA TYPHIMURIUM, Strain/Indicator: TA97, Metabolic Activation: RAT, LIVER, S-9, AROCLOR 1254 (10%), Method: PREINCUBATION); “inactive; negative” (Test System: AMES SALMONELLA TYPHIMURIUM, Strain/Indicator: TA97, Metabolic Activation: RAT, LIVER, S-9, AROCLOR 1254 (30%), Method: PREINCUBATION); “inactive; negative” (Test System: AMES SALMONELLA TYPHIMURIUM, Strain/Indicator: TA98, Metabolic Activation: HAMSTER, LIVER, S-9, AROCLOR 1254 (10%), Method: PREINCUBATION). The mutagenic call by setting is: (Test System: AMES SALMONELLA TYPHIMURIUM, Strain/Indicator: TA98, Metabolic Activation: HAMSTER, LIVER, S-9, AROCLOR 1254 (30%), Method: PREINCUBATION) “inactive; negative”; (Test System: AMES SALMONELLA TYPHIMURIUM, Strain/Indicator: TA98, Metabolic Activation: NONE, Method: PREINCUBATION) “inactive; negative”; (Test System: AMES SALMONELLA TYPHIMURIUM, Strain/Indicator: TA98, Metabolic Activation: RAT, LIVER, S-9, AROCLOR 1254 (10%), Method: PREINCUBATION) “inactive; negative”; (Test System: AMES SALMONELLA TYPHIMURIUM, Strain/Indicator: TA98, Metabolic Activation: RAT, LIVER, S-9, AROCLOR 1254 (30%), Method: PREINCUBATION) “inactive; negative”; (Test System: AMES SALMONELLA TYPHIMURIUM, Strain/Indicator: TA100, Metabolic Activation: HAMSTER, LIVER, S-9, AROCLOR 1254 (10%), Method: PREINCUBATION) “inactive; negative”; (Test System: AMES SALMONELLA TYPHIMURIUM, Strain/Indicator: TA100, Metabolic Activation: HAMSTER, LIVER, S-9, AROCLOR 1254 (30%), Method: PREINCUBATION) “inactive; negative”. In addition, the mutagenic call is “inactive; negative” (Test System: AMES SALMONELLA TYPHIMURIUM, Strain/Indicator: TA100, Metabolic Activation: NONE, Method: PREINCUBATION); “inactive; negative” (Test System: AMES SALMONELLA TYPHIMURIUM, Strain/Indicator: TA100, Metabolic Activation: RAT, LIVER, S-9, AROCLOR 1254 (10%), Method: PREINCUBATION); “inactive; negative” (Test System: AMES SALMONELLA TYPHIMURIUM, Strain/Indicator: TA100, Metabolic Activation: RAT, LIVER, S-9, AROCLOR 1254 (30%), Method: PREINCUBATION); “inactive; negative” (Test System: AMES SALMONELLA TYPHIMURIUM, Strain/Indicator: TA1535, Metabolic Activation: HAMSTER, LIVER, S-9, AROCLOR 1254 (10%), Method: PREINCUBATION); “inactive; negative” (Test System: AMES SALMONELLA TYPHIMURIUM, Strain/Indicator: TA1535, Metabolic Activation: HAMSTER, LIVER, S-9, AROCLOR 1254 (30%), Method: PREINCUBATION); “inactive; negative” (Test System: AMES SALMONELLA TYPHIMURIUM, Strain/Indicator: TA1535, Metabolic Activation: NONE, Method: PREINCUBATION). Also, the mutagenic call is, setting by setting: (Test System: AMES SALMONELLA TYPHIMURIUM, Strain/Indicator: TA1535, Metabolic Activation: RAT, LIVER, S-9, AROCLOR 1254 (10%), Method: PREINCUBATION) “inactive; negative”; (Test System: AMES SALMONELLA TYPHIMURIUM, Strain/Indicator: TA1535, Metabolic Activation: RAT, LIVER, S-9, AROCLOR 1254 (30%), Method: PREINCUBATION) “inactive; negative”; (Test System: AMES SALMONELLA TYPHIMURIUM, Strain/Indicator: TA1537, Metabolic Activation: HAMSTER, LIVER, S-9, AROCLOR 1254 (30%), Method: PREINCUBATION) “inactive; negative”; (Test System: AMES SALMONELLA TYPHIMURIUM, Strain/Indicator: TA1537, Metabolic Activation: NONE, Method: PREINCUBATION) “inactive; negative”; (Test System: AMES SALMONELLA TYPHIMURIUM, Strain/Indicator: TA1537, Metabolic Activation: RAT, LIVER, S-9, AROCLOR 1254 (30%), Method: PREINCUBATION) “inactive; negative”.
With `CCOP(=O)(OCC)N1[C@@H]2c3ccccc3-c3ccccc3[C@@H]21` (stereo not given in full), the mutagenic call is “active; positive” under setting [3] and “active; positive” (Test System: CHINESE HAMSTER V-79, Strain/Indicator: V-79/6-THIOGUANINE, Metabolic Activation: NONE, Method: STANDARD PLATE).
For `CN=NC(C)(C)OO`, the mutagenic call is “active; positive” (Test System: AMES SALMONELLA TYPHIMURIUM, Strain/Indicator: TA100, Metabolic Activation: NONE); “active; positive” (Test System: AMES SALMONELLA TYPHIMURIUM, Strain/Indicator: TA102, Metabolic Activation: NONE); “active; positive” under setting [5]; “active; positive” (Test System: E. COLI, Strain/Indicator: WP2 (HCR-), Metabolic Activation: NONE).
On to `Cc1ccc(NC(=O)N(C)C)cc1Cl`, for which the mutagenic call reads like this: (Test System: AMES SALMONELLA TYPHIMURIUM, Strain/Indicator: TA98, Metabolic Activation: IMMATURE CARP LIVER S-9, 3-METHYLCHOLANTHRENE, Method: STANDARD PLATE) “inactive; negative”; under setting [1], “inactive; negative”; (Test System: AMES SALMONELLA TYPHIMURIUM, Strain/Indicator: TA100, Metabolic Activation: IMMATURE CARP LIVER S-9, 3-METHYLCHOLANTHRENE, Method: STANDARD PLATE) “inactive; negative”; under setting [3], “inactive; negative”.
Consider `CN1CCN(c2ccc3nc(CCCc4ccc5nc(-c6ccc(N(CCCl)CCCl)cc6)[nH]c5c4)[nH]c3c2)CC1`, for which the mutagenic call was “inactive; negative” under setting [1]; “inactive; negative” under setting [3]; “active; positive” (Test System: AMES SALMONELLA TYPHIMURIUM, Strain/Indicator: TA102, Metabolic Activation: NONE, Method: STANDARD PLATE).
For `COc1c2ccoc2c(OC)c2oc(=O)ccc12`, the mutagenic call by setting is: under setting [1], “inactive; negative”; (Test System: AMES SALMONELLA TYPHIMURIUM, Strain/Indicator: TA98, Metabolic Activation: RAT, LIVER, S-9, PHENOBARBITAL, Method: STANDARD PLATE) “inactive; negative”.

The values are drawn from PubChem BioAssay AID1259407 (Chemical Carcinogenesis Research Information System (CCRIS), 2018).
